This note sets out measurements from US11485742B2, “2-azaspiro[3.4]octane derivatives as M4 agonists” (NOVARTIS AG, priority 2019, dated 2022).

Each structure is given as a SMILES string. Where only a bound is given, the exact number is not on record here.

Test [1] has as its target T1, human cloned CHRM4 receptor (Homo sapiens, UniProt P08173).
T1 construct: expressed in transfected cells; host or cells: CHO-K1 (M4_CHO)
T1 sequence (P08173 1-479): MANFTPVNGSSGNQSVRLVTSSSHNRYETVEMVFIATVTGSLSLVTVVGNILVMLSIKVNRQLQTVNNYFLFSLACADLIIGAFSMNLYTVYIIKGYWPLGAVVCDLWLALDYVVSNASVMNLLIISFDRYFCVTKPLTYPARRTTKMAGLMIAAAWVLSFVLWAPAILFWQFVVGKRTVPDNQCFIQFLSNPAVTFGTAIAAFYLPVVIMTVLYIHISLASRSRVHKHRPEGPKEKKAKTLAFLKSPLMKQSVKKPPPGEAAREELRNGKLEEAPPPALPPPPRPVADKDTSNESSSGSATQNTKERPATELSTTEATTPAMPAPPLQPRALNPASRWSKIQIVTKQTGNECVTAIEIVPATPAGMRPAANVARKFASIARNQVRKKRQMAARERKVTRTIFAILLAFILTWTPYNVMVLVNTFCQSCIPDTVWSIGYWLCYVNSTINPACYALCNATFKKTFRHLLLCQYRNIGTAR
The test is described as follows: CHRM4 Ca++ Flux Assay (M4_CHO cells, agonist mode). The note with it: for Emax / M4 FDSS PA %: Percent Activity (PA); for Emax: read-out: M4 FDSS PA %; for EC50: geometric mean if tested more than once, read-out: M4 FDSS EC50. It counts as cell-based. The method in brief: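 CHO-K1 cells stably expressing human M4 were dye-loaded, then held 60 min at RT in Ca/Mg-free HBSS buffer with 20 μM ATP. Ca++ traces were recorded over 3 min after an 11-point compound series in triplicate, agonist mode, with a four-parameter fit. Percent activity is relative to the carbachol EC100; repeat tests are geometric means.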

Test [2] has as its target T2, human cloned CHRM3 receptor (Homo sapiens, UniProt P20309).
T2 construct: expressed in transfected cells; host or cells: CHO-K1 (M3_CHO)
Kind of test: CHRM3 Ca++ Flux Assay (M3_CHO cells, agonist mode). It counts as cell-based. The note with it: for Emax / M3 FDSS PA %: Percent Activity (PA) measured to EC100 of Carbachol; for Emax: read-out: M3 FDSS PA %; for EC50: agonist mode, geometric mean if tested more than once, read-out: M3 FDSS EC50. The method in brief: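 CHO-K1 cells stably expressing human M3 or M5 receptor, dye-loaded ≥1 h, treated with 11-point compound doses in triplicate; Ca++ flux read over 3 min (FDSS). Agonist-mode four-parameter fit; percent activity relative to carbachol EC100; repeat tests reported as geometric mean.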

T2 sequence (P20309 whole entry): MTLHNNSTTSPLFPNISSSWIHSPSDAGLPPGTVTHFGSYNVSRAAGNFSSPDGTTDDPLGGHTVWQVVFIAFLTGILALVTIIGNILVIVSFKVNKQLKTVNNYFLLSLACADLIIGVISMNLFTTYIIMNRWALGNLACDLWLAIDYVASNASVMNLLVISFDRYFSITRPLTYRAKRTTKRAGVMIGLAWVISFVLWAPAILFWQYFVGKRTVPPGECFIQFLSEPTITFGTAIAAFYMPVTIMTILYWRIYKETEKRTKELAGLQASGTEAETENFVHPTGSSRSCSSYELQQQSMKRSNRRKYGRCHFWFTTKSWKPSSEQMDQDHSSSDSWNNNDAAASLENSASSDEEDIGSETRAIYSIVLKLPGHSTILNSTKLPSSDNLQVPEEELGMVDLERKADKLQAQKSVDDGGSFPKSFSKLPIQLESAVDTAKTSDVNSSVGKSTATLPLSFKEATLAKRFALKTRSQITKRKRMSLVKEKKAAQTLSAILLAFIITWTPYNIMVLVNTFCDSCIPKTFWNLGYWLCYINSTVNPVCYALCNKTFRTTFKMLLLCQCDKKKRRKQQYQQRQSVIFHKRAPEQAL

On to `CC(C)(O)COc1ccc(F)cc1C1CCN([C@@H]2COC3(C2)CN(c2nncs2)C3)CC1` [Example 5U, (S)-1-(2-(1-(2-(1,3,4-thiadiazol-2-yl)-5-oxa-2-azaspiro[3.4]octan-7-yl)piperidin-4-yl)-4-fluorophenoxy)-2-methylpropan-2-ol], for which the Emax in test [1] was determined as 67%; in test [2], 0%. The EC50 (as a rule, the concentration giving half of the maximal effect) in test [1] is 238 nM; in test [2], greater than 25000 nM.
In the case of `OC[C@H]1C[C@H](Oc2ccc(F)cc2C2CCN([C@@H]3COC4(C3)CN(c3nnco3)C4)CC2)C1` (single isomer, unassigned) [Example 2HH, ((1S,3r)-3-(2-(1-((S)-2-(1,3,4-oxadiazol-2-yl)-5-oxa-2-azaspiro[3.4]octan-7-yl)piperidin-4-yl)-4-fluorophenoxy)cyclobutyl)methanol or ((1R,3s)-3-(2-(1-((S)-2-(1,3,4-oxadiazol-2-yl)-5-oxa-2-azaspiro[3.4]octan-7-yl)piperidin-4-yl)-4-fluorophenoxy)cyclobutyl)methanol], in test [1], the “M4 FDSS PA %” value was determined as 85% and the EC50 was determined as 124 nM. In addition, in test [2], the “M3 FDSS PA %” value was 0% and the EC50 was greater than 25000 nM.
As to `Fc1ccc(OC2CCOCC2)c(C2CCN([C@@H]3COC4(C3)CN(c3nnco3)C4)CC2)c1` [Example 1G, (S)-7-(4-(5-fluoro-2-((tetrahydro-2H-pyran-4-yl)oxy)phenyl)piperidin-1-yl)-2-(1,3,4-oxadiazol-2-yl)-5-oxa-2-azaspiro[3.4]octane], in test [1], the Emax stood at 84% and the EC50 worked out at 31 nM. Further, in test [2], the Emax worked out at 0% and the EC50 is greater than 25000 nM.
The matching figures for `Fc1ccc(OCC2C3COCC32)c(C2CCN([C@@H]3COC4(C3)CN(c3nnco3)C4)CC2)c1` (stereo partly drawn) [Example 2Z, (7S)-7-(4-(2-((3-oxabicyclo[3.1.0]hexan-6-yl)methoxy)-5-fluorophenyl)piperidin-1-yl)-2-(1,3,4-oxadiazol-2-yl)-5-oxa-2-azaspiro[3.4]octane]: 51%, 108 nM, 0% and greater than 25000 nM.
The like results for `COCCOc1ccc(F)cc1C1CCN([C@@H]2COC3(C2)CN(c2nncs2)C3)CC1` [Example 5S, (S)-7-(4-(5-fluoro-2-(2-methoxyethoxy)phenyl)piperidin-1-yl)-2-(1,3,4-thiadiazol-2-yl)-5-oxa-2-azaspiro[3.4]octane] were, in that order, 69%, 197 nM, 0% and greater than 25000 nM.
On to `Fc1cc(F)c(OC2CC3(COC3)C2)c(C2CCN([C@@H]3COC4(C3)CN(c3nnco3)C4)CC2)c1` [Example 2AA, (S)-7-(4-(2-((2-oxaspiro[3.3]heptan-6-yl)oxy)-3,5-difluorophenyl)piperidin-1-yl)-2-(1,3,4-oxadiazol-2-yl)-5-oxa-2-azaspiro[3.4]octane], for which, in test [1], the Emax is 16% and the EC50 is 210 nM. In test [2], the Emax amounted to 0% and the EC50 is greater than 25000 nM.
`Fc1cc(F)c(OCC2COC2)c(C2CCN([C@@H]3COC4(C3)CN(c3nnco3)C4)CC2)c1` [Example 2DD, (S)-7-(4-(3,5-difluoro-2-(oxetan-3-ylmethoxy)phenyl)piperidin-1-yl)-2-(1,3,4-oxadiazol-2-yl)-5-oxa-2-azaspiro[3.4]octane]: in test [1], the Emax was determined as 64% and the EC50 is 155 nM. Besides, in test [2], the Emax came out at 0% and the concentration for a half-maximal effect (EC50) was greater than 25000 nM.
The matching figures for `Fc1cc(F)c(OC2CCOCC2)c(C2CCN([C@@H]3COC4(C3)CN(c3nnco3)C4)CC2)c1` [Example 2BB, (S)-7-(4-(3,5-difluoro-2-((tetrahydro-2H-pyran-4-yl)oxy)phenyl)piperidin-1-yl)-2-(1,3,4-oxadiazol-2-yl)-5-oxa-2-azaspiro[3.4]octane]: 91%, 946 nM, 0% and greater than 25000 nM.
With `CC(C)(O)[C@H]1C[C@@H](Oc2ccc(F)cc2C2CCN([C@@H]3COC4(C3)CN(c3ncco3)C4)CC2)C1` (single isomer, unassigned) [Example 4U, 2-((1R,3s)-3-(4-fluoro-2-(1-((S)-2-(oxazol-2-yl)-5-oxa-2-azaspiro[3.4]octan-7-yl)piperidin-4-yl)phenoxy)cyclobutyl)propan-2-ol or 2-((1S,3r)-3-(4-fluoro-2-(1-((S)-2-(oxazol-2-yl)-5-oxa-2-azaspiro[3.4]octan-7-yl)piperidin-4-yl)phenoxy)cyclobutyl)propan-2-ol], in test [1], the “M4 FDSS PA %” value worked out at 62% and the EC50 amounted to 42 nM. In test [2], the “M3 FDSS PA %” value was determined as 0% and the half-maximal effective concentration (EC50) was greater than 25000 nM.
As to `CC(C)(O)[C@H]1C[C@H](Oc2ccc(F)cc2C2CCN([C@@H]3COC4(C3)CN(c3nnco3)C4)CC2)C1` (single isomer, unassigned) [Example 2W, 2-((1S,3r)-3-(2-(1-((S)-2-(1,3,4-oxadiazol-2-yl)-5-oxa-2-azaspiro[3.4]octan-7-yl)piperidin-4-yl)-4-fluorophenoxy)cyclobutyl)propan-2-ol or 2-((1R,3s)-3-(2-(1-((S)-2-(1,3,4-oxadiazol-2-yl)-5-oxa-2-azaspiro[3.4]octan-7-yl)piperidin-4-yl)-4-fluorophenoxy)cyclobutyl)propan-2-ol], in test [1], the “M4 FDSS PA %” value is 70% and the EC50 stood at 87 nM. In test [2], the “M3 FDSS PA %” value was 0% and the EC50 was greater than 25000 nM.
For the compound `COCCOc1ccc(F)cc1C1CCN([C@@H]2COC3(C2)CN(c2ncco2)C3)CC1` [Example 4L, (S)-7-(4-(5-fluoro-2-(2-methoxyethoxy)phenyl)piperidin-1-yl)-2-(oxazol-2-yl)-5-oxa-2-azaspiro[3.4]octane], the Emax was 52% in test [1] and 0% in test [2]. Further, the EC50 in test [1] is 27 nM; in test [2] it was greater than 25000 nM.
In the case of `O[C@H]1CC[C@@H](c2ccc(F)cc2C2CCN([C@@H]3COC4(C3)CN(c3nnco3)C4)CC2)CC1` (single isomer, unassigned) [Example 3I, (1R,4s)-4-(2-(1-((S)-2-(1,3,4-oxadiazol-2-yl)-5-oxa-2-azaspiro[3.4]octan-7-yl)piperidin-4-yl)-4-fluorophenyl)cyclohexan-1-ol or (1S,4r)-4-(2-(1-((S)-2-(1,3,4-oxadiazol-2-yl)-5-oxa-2-azaspiro[3.4]octan-7-yl)piperidin-4-yl)-4-fluorophenyl)cyclohexan-1-ol], in test [1], the “M4 FDSS PA %” value was 91.2% and the half-maximal effective concentration (EC50) was found to be 38 nM. Besides, in test [2], the “M3 FDSS PA %” value was 0% and the EC50 is greater than 25000 nM.
Consider `Fc1ccc(O[C@@H]2CCOC2)c(C2CCN([C@@H]3COC4(C3)CN(c3nncs3)C4)CC2)c1` [Example 5H, (S)-7-(4-(5-fluoro-2-(((R)-tetrahydrofuran-3-yl)oxy)phenyl)piperidin-1-yl)-2-(1,3,4-thiadiazol-2-yl)-5-oxa-2-azaspiro[3.4]octane], for which the Emax in test [1] came to 99%; in test [2] it was 0%. The 50% effective concentration (EC50) in test [1] is 15 nM; in test [2], greater than 25000 nM.
Consider `c1ccc([C@@H]2CCOC2)c(C2CCN([C@@H]3COC4(C3)CN(c3nnco3)C4)CC2)c1` (single isomer, unassigned) [Example 3A, (S)-2-(1,3,4-oxadiazol-2-yl)-7-(4-(2-((S)-tetrahydrofuran-3-yl)phenyl)piperidin-1-yl)-5-oxa-2-azaspiro[3.4]octane or (S)-2-(1,3,4-oxadiazol-2-yl)-7-(4-(2-((R)-tetrahydrofuran-3-yl)phenyl)piperidin-1-yl)-5-oxa-2-azaspiro[3.4]octane], for which, in test [1], the “M4 FDSS PA %” value amounted to 91% and the half-maximal effective concentration (EC50) came out at 83 nM. Besides, in test [2], the “M3 FDSS PA %” value is 0% and the EC50 was greater than 25000 nM.
`Fc1cc(OCC2COC2)c(C2CCN([C@@H]3COC4(C3)CN(c3ncco3)C4)CC2)cc1F` [Example 4O, (S)-7-(4-(4,5-difluoro-2-(oxetan-3-ylmethoxy)phenyl)piperidin-1-yl)-2-(oxazol-2-yl)-5-oxa-2-azaspiro[3.4]octane]: in test [1], the Emax worked out at 58% and the concentration for a half-maximal effect (EC50) came to 7 nM. Moreover, in test [2], the Emax stood at 0% and the concentration giving a half-maximal response (EC50) is greater than 25000 nM.
